Results published in PMC3091868, “A Novel Structural Framework for α1A/D-Adrenoceptor Selective Antagonists Identified Using Subtype Selective Pharmacophores” (PLoS ONE, 2011).

Molecular target: T1, α1D-AR (Rattus norvegicus, UniProt P23944)
T1 construct: expressed in transfected cells; host or cells: COS-1
T1 sequence (P23944 1-561): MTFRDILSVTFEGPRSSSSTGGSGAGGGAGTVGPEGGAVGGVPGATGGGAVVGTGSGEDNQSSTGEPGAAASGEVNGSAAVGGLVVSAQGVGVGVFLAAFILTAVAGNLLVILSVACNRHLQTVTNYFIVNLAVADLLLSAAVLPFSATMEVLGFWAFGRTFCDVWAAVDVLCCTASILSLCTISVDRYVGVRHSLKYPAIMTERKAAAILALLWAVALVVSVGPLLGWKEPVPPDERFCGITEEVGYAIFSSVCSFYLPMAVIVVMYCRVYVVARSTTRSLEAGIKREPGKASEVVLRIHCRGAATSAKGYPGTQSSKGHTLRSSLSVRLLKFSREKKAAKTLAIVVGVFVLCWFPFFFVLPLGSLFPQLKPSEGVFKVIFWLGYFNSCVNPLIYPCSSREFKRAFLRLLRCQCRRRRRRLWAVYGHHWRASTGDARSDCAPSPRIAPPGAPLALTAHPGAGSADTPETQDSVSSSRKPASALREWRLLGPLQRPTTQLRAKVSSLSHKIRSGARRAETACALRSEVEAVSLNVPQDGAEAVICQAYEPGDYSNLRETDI
Assay: Phosphatidylinositol hydrolysis (IP accumulation) assay in COS-1 cells expressing α1D-AR
Format: cell-based, rodent
Conditions: 100 µM compound alone, agonist screen, n = 3
Protocol: COS-1 cells (American Type Culture Collection, Manassas, VA) were cultured in Dulbecco's modified Eagle's medium (DMEM) supplemented with 10% (v/v) heat inactivated fetal bovine serum (FBS), 100 µg ml^−1 penicillin and 100 µg ml^−1 streptomycin. Cells were maintained and passaged upon reaching confluence by standard cell culture techniques. pMT4 plasmids containing rodent α1-AR (a kind gift from Prof R Graham, Victor Chang Cardiac Research Institute, Australia) were used to transfect cells. Transient expression in COS-1 cells was accomplished using two techniques; the diethylaminoethane-dextran (DEAE-dextran) and Lipofectamine 2000 (Invitrogen, Carlsbad, CA, USA) methods. Briefly, the DEAE-dextran method involved washing of cells with phosphate buffered saline (PBS), followed by the addition of the DNA mixture (12–25 µg/4×10^6 cells) in DEAE-dextran (10 mg ml^−1) to cells at 60–80% confluency. Following a 3 h incubation, a PBS wash with 10% DMSO was used to shock the cells. Cells were harvested 72 h post transfection. […]
Accumulation of [^3H] inositol phosphates (IPs) was determined as described previously. […] 200 µL of eluted sample was diluted with 1 mL reverse osmosis water and 5 mL Ultimaflow scintillation fluid (Perkin Elmer), and were counted in a liquid scintillation counter. […]

CCCCCCCCN(CCCCCCCC)CC(O)c1ccccc1Cl (stereo not shown) [Compound 8]
IP production, compound alone, compared to control, α1D-AR: distinct trend of increased IP production
